In patent US12448388B2, “PRMT5 inhibitors and uses thereof” (Gilead Sciences, Inc., priority 2023, dated 2025):
Read-outs that look alike come from different tables or passages of the source.

System: HCT116 MTAP-deleted cell lines
Assay: Cell viability assay (CellTiter-Glo, 7 days), HCT116 MTAP-deleted
Type: cell-based
Settings: Homo sapiens, HCT-116
Method in brief: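 First, compounds are serially diluted in DMSO and dispensed into plates, which are frozen until seeding. Next, cells are added and incubated 7 days at 37 °C, 5% CO2, 90% humidity. Finally, CellTiter-Glo reagent is added and luminescence is measured to derive CC50.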

[1] = cell viability, HCT116 MTAP-deleted, class symbols, read-out: CC50
[2] = cell viability assay, HCT116 MTAP-deleted, class symbols, read-out: CC50

Row | SMILES | CC50 [1] [nM] | CC50 [2] [nM] | other results
1 | N#Cc1cc2nc(N)c3cncn3c2cc1C(=O)N1CCC[C@@H]2Oc3cc(OC(F)(F)F)ccc3[C@@H]21 [Ff-349, 4-amino-8-((4aS,9bS)-7-(trifluoromethoxy)-1,2,3,4,4a,9b-hexahydrobenzofuro[3,2-b]pyridine-1-carbonyl)imidazo[1,5-a]quinoxaline-7-carbonitrile] | < 100 |  | 
2 | CN(C(=O)c1cc2c(cc1F)nc(N)c1cncn12)[C@@H]1COc2cc([C@@H]3C[C@H]3c3ccn(C(F)F)n3)ccc21 [Ff-477, 4-amino-N—((S)-6-((1R,2R)-2-(1-(difluoromethyl)-1H-pyrazol-3-yl)cyclopropyl)-2,3-dihydrobenzofuran-3-yl)-7-fluoro-N-methylimidazo[1,5-a]quinoxaline-8-carboxamide] |  | < 100 | 
3 | Cc1ncn2c1c(N)nc1cc(F)c(C(=O)N3CCC[C@@H]4OCc5nc(C(F)(F)F)ccc5[C@@H]43)cc12 [Ff-358, (4-amino-7-fluoro-3-methylimidazo[1,5-a]quinoxalin-8-yl)((4aS,10bS)-8-(trifluoromethyl)-2,3,4,4a,6,10b-hexahydro-1H-pyrano[3,2-b:5,4-b′]dipyridin-1-yl)methanone] | < 100 |  | 
4 | CN(C(=O)c1cc2c(cc1F)nc(N)c1cncn12)[C@@H]1COc2cc([C@@H]3C[C@H]3C3CC3)ccc21 (racemic) [Ff-474, Trans-N-((3S)-6-([1,1′-bi(cyclopropan)]-2-yl)-2,3-dihydrobenzofuran-3-yl)-4-amino-7-fluoro-N-methylimidazo[1,5-a]quinoxaline-8-carboxamide] |  | < 100 | 
5 | Nc1nc2cc(F)c(C(=O)N(Cc3ccc(-n4ccnc4)cc3Cl)C34CC(C3)C4)cc2n2cncc12 [Ff-53, 4-amino-N-(bicyclo[1.1.1]pentan-1-yl)-N-(2-chloro-4-(1H-imidazol-1-yl)benzyl)-7-fluoroimidazo[1,5-a]quinoxaline-8-carboxamide] | < 100 |  | 
6 | Cc1ncn2c1c(N)nc1cnc(C(=O)N3C[C@H](C)C[C@@H]4Oc5cc(C(F)(F)F)c(F)cc5[C@@H]43)cc12 [Fg-39, (4-amino-3-methylimidazo[1,5-a]pyrido[3,4-e]pyrazin-8-yl)((3R,4aS,9bS)-8-fluoro-3-methyl-7-(trifluoromethyl)-3,4,4a,9b-tetrahydrobenzofuro[3,2-b]pyridin-1(2H)-yl)methanone] |  | < 100 | 
7 | CN(C(=O)c1cc2c(cc1F)nc(N)c1cncn12)[C@@H]1COc2cc(C3COC3)ccc21 [Ff-573, (S)-4-amino-7-fluoro-N-methyl-N-(6-(oxetan-3-yl)-2,3-dihydrobenzofuran-3-yl)imidazo[1,5-a]quinoxaline-8-carboxamide] |  | 100 to 1000 | 
8 | C[C@@H]1CN(C(=O)c2cc3c(cc2F)nc(N)c2cncn23)[C@H]2c3ccc(-c4cnn(C(F)F)c4)c(F)c3C[C@H]2O1 [Ff-199, (4-amino-7-fluoroimidazo[1,5-a]quinoxalin-8-yl)((2R,4aS,9aR)-7-(1-(difluoromethyl)-1H-pyrazol-4-yl)-8-fluoro-2-methyl-2,3,9,9a-tetrahydroindeno[2,1-b][1,4]oxazin-4(4aH)-yl)methanone] | < 100 |  | 
9 | Nc1nc2cc(F)c(C(=O)N3CCO[C@@H]4Cc5cc(C6CC6)ccc5[C@@H]43)cc2n2cncc12 [Ff-236, (4-amino-7-fluoroimidazo[1,5-a]quinoxalin-8-yl)((4aS,9aR)-7-cyclopropyl-2,3,9,9a-tetrahydroindeno[2,1-b][1,4]oxazin-4(4aH)-yl)methanone] | 100 to 1000 |  | 
10 | CC(C)N(Cc1ccc(-c2ccc[nH]c2=O)cc1F)C(=O)c1cc2c(cc1F)nc(N)c1cncn12 [Ff-594, 4-amino-7-fluoro-N-(2-fluoro-4-(2-oxo-1,2-dihydropyridin-3-yl)benzyl)-N-isopropylimidazo[1,5-a]quinoxaline-8-carboxamide] |  | 100 to 1000 | 
11 | Nc1nc2cc(F)c(C(=O)N3CC[C@H]4C[C@@H]3c3ccc(C(F)(F)F)cc3O4)cc2n2cncc12 [Ff-365, (4-amino-7-fluoroimidazo[1,5-a]quinoxalin-8-yl)((2S,6R)-9-(trifluoromethyl)-3,4-dihydro-2H-2,6-methanobenzo[b][1,5]oxazocin-5(6H)-yl)methanone] | < 100 |  | 
12 | Nc1nc2ccc(C(=O)N3CCC[C@@H]4Oc5cc(C(F)(F)F)c(F)cc5[C@@H]43)cc2n2cncc12 [Ff-389, (4-aminoimidazo[1,5-a]quinoxalin-8-yl)((4aS,9bS)-8-fluoro-7-(trifluoromethyl)-3,4,4a,9b-tetrahydrobenzofuro[3,2-b]pyridin-1(2H)-yl)methanone] |  | < 100 | 
13 | Cc1ncn2c1c(N)nc1cc(F)c(C(=O)N3C[C@H](C)C[C@@H]4Oc5nc(C(F)(F)F)ccc5[C@@H]43)cc12 [Ff-374, (4-amino-7-fluoro-3-methylimidazo[1,5-a]quinoxalin-8-yl)((3R,4aS,9bS)-3-methyl-7-(trifluoromethyl)-3,4,4a,9b-tetrahydrofuro[2,3-b:4,5-b′]dipyridin-1(2H)-yl)methanone] |  | < 100 | 
14 | CN(Cc1ccc(C(F)(F)F)cc1C(F)(F)F)C(=O)c1ccc2nc(N)c3cncn3c2c1 [Ff-409, 4-amino-N-[[2,4-bis(trifluoromethyl)phenyl]methyl]-N-methyl-imidazo[1,5-a]quinoxaline-8-carboxamide] |  | 100 to 1000 | 
15 | Nc1nc2cc(Cl)c(C(=O)N3CC[C@H]4C[C@@H]3c3c(F)cc(Cl)cc34)cc2n2cncc12 [Ff-488, (4-amino-7-chloroimidazo[1,5-a]quinoxalin-8-yl)((1R,5S)-7-chloro-9-fluoro-1,3,4,5-tetrahydro-2H-1,5-methanobenzo[c]azepin-2-yl)methanone] |  | 100 to 1000 | 
16 | Nc1nc2ccc(C(=O)N3CCOC[C@@H]3c3ccc(C(F)(F)F)cc3)cc2n2cncc12 [Ff-84, (S)-(4-aminoimidazo[1,5-a]quinoxalin-8-yl)(3-(4-(trifluoromethyl)phenyl)morpholino)methanone] | 100 to 1000 |  | 
17 | Nc1nc2cc(F)c(C(=O)N3CCC[C@@H]4Cc5nc(C(F)(F)F)ccc5[C@@H]43)cc2n2cncc12 (racemic) [Ff-314, Rac-(4-amino-7-fluoroimidazo[1,5-a]quinoxalin-8-yl)((4bR,8aR)-2-(trifluoromethyl)-4b,6,7,8,8a,9-hexahydro-5H-cyclopenta[1,2-b:3,4-b′]dipyridin-5-yl)methanone] | < 100 |  | 
18 | C[C@@H]1CN(C(=O)c2cc3c(cc2F)nc(N)c2cncn23)[C@H]2c3ccc(C(F)(F)F)cc3C[C@H]2O1 (single isomer, unassigned) [Ff-77] | < 100 |  | 
19 | C=C(C)c1ccc2c(c1)OC[C@H]2N(C)C(=O)c1cc2c(cc1F)nc(N)c1cncn12 [Ff-478, (S)-4-amino-7-fluoro-N-methyl-N-(6-(prop-1-en-2-yl)-2,3-dihydrobenzofuran-3-yl)imidazo[1,5-a]quinoxaline-8-carboxamide] |  | < 100 | 
20 | Nc1nc2cc(F)c(C(=O)N3CCC[C@@H]4Oc5cc(OC(F)(F)F)c(F)cc5[C@@H]43)cc2n2cncc12 (single isomer, unassigned) [Ff-396] |  | < 100 | 
21 | Cc1ncc2c(N)nc3ccc(C(=O)N4CCC5(CC4)C(=O)N(C)c4ccccc45)cc3n12 [Ff-64, 1′-(4-amino-1-methylimidazo[1,5-a]quinoxaline-8-carbonyl)-1-methylspiro[indoline-3,4′-piperidin]-2-one] | 100 to 1000 |  | 
22 | CN(C(=O)c1cc2c(cc1F)nc(N)c1cncn12)[C@H]1c2ccc(Br)cc2[C@@H]2C[C@@H]21 [Ff-330, 4-amino-N-((1aR,6R,6aS)-3-bromo-1,1a,6,6a-tetrahydrocyclopropa[a]inden-6-yl)-7-fluoro-N-methylimidazo[1,5-a]quinoxaline-8-carboxamide] | 100 to 1000 |  | 
23 | CN(C(=O)c1cc2c(cc1F)nc(N)c1cncn12)[C@@H]1COc2cc(C#CC3(C(F)F)CCOCC3)ccc21 [Ff-437, (S)-4-amino-N-(6-((4-(difluoromethyl)tetrahydro-2H-pyran-4-yl)ethynyl)-2,3-dihydrobenzofuran-3-yl)-7-fluoro-N-methylimidazo[1,5-a]quinoxaline-8-carboxamide] |  | < 100 | 
24 | Nc1nc2cc(F)c(C(=O)N3CCC4(CC4)CC3c3ccc(C(F)(F)F)cn3)cc2n2cncc12 (stereo not drawn) [Ff-225, (4-amino-7-fluoroimidazo[1,5-a]quinoxalin-8-yl)(5-(5-(trifluoromethyl)pyridin-2-yl)-6-azaspiro[2.5]octan-6-yl)methanone] |  |  | CC50: 100 to 1000 nM
25 | Cc1ncn2c1c(N)nc1ccc(C(=O)N3C[C@H](C)O[C@@H]4Cc5cc(OC(F)(F)F)ccc5[C@@H]43)cc12 (single isomer, unassigned) [Fg-23] |  | < 100 | 
26 | CC(C)N(Cc1ccc(-c2cnn(C(F)F)c2)cc1F)C(=O)c1ccc2nc(N)c3cncn3c2c1 [Ff-51, 4-amino-N-(4-(1-(difluoromethyl)-1H-pyrazol-4-yl)-2-fluorobenzyl)-N-isopropylimidazo[1,5-a]quinoxaline-8-carboxamide] | 100 to 1000 |  | 
27 | Cn1ccc(N(Cc2ccc(C(F)(F)F)cc2F)C(=O)c2cc3c(cc2F)nc(N)c2cncn23)n1 [Ff-286, 4-amino-7-fluoro-N-(2-fluoro-4-(trifluoromethyl)benzyl)-N-(1-methyl-1H-pyrazol-3-yl)imidazo[1,5-a]quinoxaline-8-carboxamide] | < 100 |  | 
28 | Cc1ncn2c1c(N)nc1cc(F)c(C(=O)N(C)[C@@H]3COCc4nc(C(F)(F)F)ccc43)cc12 [Ff-303, (S)-4-amino-7-fluoro-N,3-dimethyl-N-(2-(trifluoromethyl)-5,8-dihydro-6H-pyrano[3,4-b]pyridin-5-yl)imidazo[1,5-a]quinoxaline-8-carboxamide] | < 100 |  | 
29 | Nc1nc2cc(F)c(C(=O)N3CC(F)(F)CC[C@H]3c3ccc(C(F)(F)F)cn3)cc2n2cncc12 (single isomer, unassigned) [Ff-243] | 100 to 1000 |  | 
30 | CN(C(=O)c1cc2c(cc1F)nc(N)c1cncn12)[C@@H]1COc2cc(C#CC(F)(F)F)ccc21 [Ff-515, (S)-4-amino-7-fluoro-N-methyl-N-(6-(3,3,3-trifluoroprop-1-yn-1-yl)-2,3-dihydrobenzofuran-3-yl)imidazo[1,5-a]quinoxaline-8-carboxamide] |  | 100 to 1000 | 
